Columns and labels:
primary rat hepatocytes = test: Glycogen synthesis in primary rat hepatocytes; format: cell-based; details: Hepatocyte, 10 μM concentration, primary hepatocytes from male Wistar rats, D-[U14C]-glucose, 3 hours, read-out: Glycogen synthesis, fold increase over DMSO control
Method: The glycogen deposition assay was carried out with few modifications in the original protocol as described in “Biochem J. 1990 Feb. 15; 266(1): 91-102”. In brief, primary hepatocytes were collected from male Wistar rats, and were seeded in a 48-well plate at a density of 150,000 cells/well in Minimal Essential Medium (MEM) containing 10% foetal calf serum (FCS) 100 nM insulin and 10 nM dexamethasone. followed by incubation for 4 hours at 37° C. The medium was replaced with fresh MEM containing 10% FCS and 10 nM dexamethasone and the cells were further incubated for 16 hours at 37° C. Following day, the medium was replaced with fresh MEM (serum-free) containing 2 μCi/ml of D-[U^14C]-glucose in the presence of the test compound. Hepatocytes were incubated for 3 hours at 37° C. followed by washing with 150 mM NaCl. Cells were lysed with 0.1 N NaOH, and the lysate was precipitated with 80% w/v trichloroacetic acid (TCA). Cell debris was pelleted by centrifugation, the supernatant was removed, and the glycogen was precipitated with 66% ethanol followed by drying overnight. Samples were dissolved in MiliQ water and transferred to 96 well reading plate, 100 μL scintillant was added per well and the plate was read in scintillation counter (MicroBeta Trilux, Perkin Elmer). Data was expressed as fold increase in glycogen synthesis over DMSO control (untreated hepatocytes).

[1] = molecular target: purified human recombinant GK (Homo sapiens (Human), UniProt P35557); test: Glucokinase activity assay (coupled enzymatic, G6PD/NADH absorbance at 340 nm); format: biochemical; details: for EC50: EC50 of % change in S0.5 of glucokinase for glucose, sigmoidal fit, read-out: EC50 (with respect to % ΔS0.5); for Emax / % Emax (with respect to % ΔS0.5): Emax of % change in S0.5 of glucokinase for glucose, vehicle S0.5 = 0%, 0 mM glucose = 100%; for Emax: read-out: % Emax (with respect to % ΔS0.5)
Chain of purified human recombinant GK (P35557 whole entry): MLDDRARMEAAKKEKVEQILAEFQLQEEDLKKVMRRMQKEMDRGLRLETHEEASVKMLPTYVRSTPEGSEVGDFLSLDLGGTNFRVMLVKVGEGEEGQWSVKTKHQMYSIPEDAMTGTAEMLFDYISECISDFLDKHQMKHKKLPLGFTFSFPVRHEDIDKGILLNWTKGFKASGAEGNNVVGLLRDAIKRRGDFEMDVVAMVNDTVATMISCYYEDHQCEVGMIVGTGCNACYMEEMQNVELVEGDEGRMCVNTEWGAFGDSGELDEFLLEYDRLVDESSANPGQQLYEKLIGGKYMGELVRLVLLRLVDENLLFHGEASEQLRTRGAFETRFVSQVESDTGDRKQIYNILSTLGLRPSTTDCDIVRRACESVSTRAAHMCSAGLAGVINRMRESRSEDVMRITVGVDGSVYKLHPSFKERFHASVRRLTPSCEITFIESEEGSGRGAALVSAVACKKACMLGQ
From the text: The glucokinase (GK) assay is a coupled enzymatic assay. GK catalyzes the first step of glycolysis, the conversion of glucose to glucose-6-phosphate (G6P) in the presence of ATP. G6P in turn is converted by glucose-6-phosphate dehydrogenase (G6PD) to 6-phosphogluconate, a process that requires NAD, resulting in NADH formation. Since the GK-catalyzed step is the rate-limiting step of this coupled enzymatic process, the rate of accumulation of 6-phosphogluconate and NADH is directly proportional to the rate of glucose phosphorylation by GK. The rate of the GK-catalyzed reaction can therefore be measured by monitoring the increase in NADH absorbance at 340 nm.
The assay is carried out according to the protocol outlined in Hariharan et al (1997), Diabetes 46: 11-16. Briefly, the test compounds are incubated in a reaction mix containing 25 mM HEPES (pH 7.2), 10 mM MgCl2, 100 mM KCl, 5 mM ATP, 2 mM DTT, 0.5 mM NAD, 1 U/mL Leuconostoc mesenteroides G6PD, 0.3 U/mL of purified human recombinant GK, and different concentrations of glucose. Enzymatic activity is calculated from the initial reaction velocity, measured from the change in NADH absorbance as a function of time.
Compounds described in formula (I), in concentration ranges from 1.0 nM to 500 μM, are tested in the purified human recombinant glucokinase assay described above.
A compound is considered to be a glucokinase activator if it, in its testable range of concentrations, yields a higher rate of glucose phosphorylation than in its absence at a particular glucose concentration, for example at 5 mM glucose.
Compounds of general formula (I) are tested in the in vitro GK enzymatic assay to monitor dose-dependent effect on glucokinase activation (in kinetic mode), as described above, at various glucose concentrations. The S0.5 of glucokinase for glucose at different concentration of each compound of interest is calculated from the following modified version of the Michaelis-Menten equation, V=Vmax [S]^n/(S0.5^n+[S]^n), where [S] is the glucose concentration and n is the Hill coefficient (taken as 1.7 to account for the sigoidal kinetics of glucokinase with respect to glucose). The S0.5 is plotted against the log of the compound concentration. The change in the S0.5 of glucokinase (ΔS0.5) for glucose is calculated by subtracting the S0.5 at each concentration of the compound from the S0.5 in the vehicle control. The ΔS0.5 is then normalized to a percent scale, where the S0.5 in the vehicle control is set to 0% and 0 mM glucose is set to 100%. The % ΔS0.5 is then plotted against the log of the compound concentration. The EC50 and Emax of % change in S0.5 is obtained from the sigoidal fit of the data. Detailed protocol has been described in our copending application no. 409/CHE/2007 which is incorporated herein by reference. Characterization data of some representative glucokinase activators of the present disclosure, which are illustrative but not limiting, are given in table I below.

[2] = animal efficacy models; PSN-GK1 at higher dose; cited from earlier work

Compound	EC50 [1]	Emax [1]	% Emax (with respect to % ΔS0.5) [1]	fold induction at 10 µM (primary rat hepatocytes)	Hypoglycemia in animal studies [2]
O=C(O)c1ccc(NC(=O)C(Oc2ccc(F)cc2F)c2ccc(S(=O)(=O)C3CC3)cc2)nc1 (single isomer, unassigned; (-)) [Example G15A, (−)6-[[2-(4-cyclopropylsulfonylphenyl)-2-(2,4-difluorophenoxy)acetyl]amino]pyridine-3-carboxylic acid]	480 nM	90%		> 2.5	
O=C(O)c1cccc(Oc2cnc(NC(=O)C(O[C@@H]3CCOC3)c3ccc(S(=O)(=O)C4CC4)cc3)s2)c1 (single isomer, unassigned; (+)) [Example G21A]				> 2.5	
O=C(Nc1ncc(Oc2cccc(CO)c2)s1)C(OC1CCOCC1)c1ccc(S(=O)(=O)C2CC2)cc1 (single isomer, unassigned; (+)) [Example G20A, (+)2-(4-cyclopropylsulfonylphenyl)-N-[5-[3-(hydroxymethyl)phenoxy]thiazol-2-yl]-2-tetrahydro-pyran-4-yloxy-acetamide]	64 nM	93%		> 2.5	
O=C(O)c1cccc(Oc2cnc(NC(=O)C(OC3CCOCC3)c3ccc(S(=O)(=O)C4CCCC4)cc3)s2)c1 (single isomer, unassigned; (+)) [Example G26A, (+)-3-[2-[[2-(4-cyclopentylsulfonylphenyl)-2-tetrahydropyran-4-yloxy-acetyl]amino]thiazol-5-yl]oxybenzoic acid]	180 nM	94%		> 2.5	
O=C(O)c1cccc(Oc2cnc(NC(=O)C(OC3CCOCC3)c3ccc(S(=O)(=O)C4CCCC4)nc3)s2)c1 (single isomer, unassigned; (+)) [Example G27A, (+)-3-[2-[[2-(6-cyclopentylsulfonyl-3-pyridyl)-2-tetrahydropyran-4-yloxy-acetyl]amino]thiazol-5-yl]oxybenzoic acid]	130 nM	95%		> 2.5	
O=C(O)c1cccc(Oc2cnc(NC(=O)C(O[C@H]3CCOC3)c3ccc(S(=O)(=O)C4CC4)cc3)s2)c1 (single isomer, unassigned; (+)) [Example G25A]	200 nM	95%		> 2.5	
CC(C)(C(=O)O)c1ccc(Oc2cnc(NC(=O)C(OC3CCOCC3)c3ccc(S(=O)(=O)C4CC4)cc3)s2)cc1 (single isomer, unassigned; (+)) [Example G5A, (+)2-[4-[2-[[2-(4-cyclopropylsulfonylphenyl)-2-tetrahydropyran-4-yloxy-acetyl]amino]thiazol-5-yl]oxyphenyl]-2-methyl-propanoic acid]	94 nM	91%			
O=C(O)c1ccc(NC(=O)C(Oc2ccc(Cl)cc2)c2ccc(S(=O)(=O)C3CC3)cc2)nc1 (centres unmarked) [Example B-58, 6-[[2-(4-chlorophenoxy)-2-(4-cyclopropylsulfonylphenyl)acetyl]amino]pyridine-3-carboxylic acid]	740 nM	89%			
O=C(O)Cc1nc(NC(=O)C(OC2CCOCC2)c2ccc(S(=O)(=O)N3CCCCC3)cc2)sc1Cl (single isomer, unassigned; (-)) [Example G3B, (−)2-[5-chloro-2-[[2-[4-(1-piperidylsulfonyl)phenyl]-2-tetrahydropyran-4-yloxy-acetyl]amino]thiazol-4-yl]acetic acid]	420 nM	94%			
O=C(Nc1ncc(F)s1)[C@H](CC1CCOCC1)c1ccc(S(=O)(=O)C2CC2)cc1 [PSN-GK1]					hypoglycemic potential
O=C(O)c1cc(Oc2cnc(NC(=O)C(OC3CCOCC3)c3ccc(S(=O)(=O)C4CC4)cc3)s2)ccn1 (centres unmarked) [Example B-49, 4-[2-[[2-(4-cyclopropylsulfonylphenyl)-2-tetrahydropyran-4-yloxy-acetyl]amino]thiazol-5-yl]oxypyridine-2-carboxylic acid]	570 nM	92%			
Ro-28-1675					cause hypoglycemia
O=C(Nc1ncc(-n2cccn2)s1)C(Oc1ccc(F)cc1F)c1ccc(S(=O)(=O)C2CC2)cc1 (single isomer, unassigned; (-)) [Example G4B, (−)2-(4-cyclopropylsulfonylphenyl)-2-(2,4-difluorophenoxy)-N-(5-pyrazol-1-ylthiazol-2-yl)acetamide]	640 nM		79%		

Further lines, with some results ahead:

EC50 [1]	Emax [1]	% Emax (with respect to % ΔS0.5) [1]	Compound	fold induction at 10 µM (primary rat hepatocytes)	Hypoglycemia in animal studies [2]
230 nM	93%		Cc1ccc(Oc2cnc(NC(=O)C(OC3CCOCC3)c3ccc(S(=O)(=O)C4CC4)cc3)s2)cc1C(=O)O (single isomer, unassigned; (+)) [Example G10A, (+)5-[2-[[2-(4-cyclopropylsulfonylphenyl)-2-tetrahydropyran-4-yloxy-acetyl]amino]thiazol-5-yl]oxy-2-methyl-benzoic acid]	> 2.5	
270 nM	92%		COc1cc(Oc2cnc(NC(=O)C(OC3CCOCC3)c3ccc(S(=O)(=O)C4CC4)cc3)s2)ccc1C(=O)O (single isomer, unassigned; (+)) [Example G9A, (+)4-[2-[[2-(4-cyclopropylsulfonylphenyl)-2-tetrahydropyran-4-yloxy-acetyl]amino]thiazol-5-yl]oxy-2-methoxy-benzoic acid]	> 2.5	
87 nM	97%		Cc1cc(Oc2cnc(NC(=O)C(OC3CCOCC3)c3ccc(S(=O)(=O)C4CC4)cc3)s2)ccc1C(=O)O (single isomer, unassigned; (+)) [Example G1A, (+)4-[2-[[2-(4-cyclopropylsulfonylphenyl)-2-tetrahydropyran-4-yloxy-acetyl]amino]thiazol-5-yl]oxy-2-methyl-benzoic acid]	> 2.5	
190 nM			O=C(O)c1cccc(Oc2cnc(NC(=O)C(OC3CCOCC3)c3ccc(S(=O)(=O)C4CC4)cc3)s2)c1 (single isomer, unassigned; (+)) [Example G8A, (+)3-[2-[[2-(4-cyclopropylsulfonylphenyl)-2-tetrahydropyran-4-yloxy-acetyl]amino]thiazol-5-yl]oxybenzoic acid]	> 2.5	
270 nM	93%		O=C(O)c1cc(Oc2cnc(NC(=O)C(OC3CCOCC3)c3ccc(S(=O)(=O)C4CC4)cc3)s2)ccc1F (single isomer, unassigned; (+)) [Example G16A, (+)5-[2-[[2-(4-cyclopropylsulfonylphenyl)-2-tetrahydropyran-4-yloxy-acetyl]amino]thiazol-5-yl]oxy-2-fluoro-benzoic acid]	> 2.5	
330 nM		92%	Cc1cc(Oc2cnc(NC(=O)C(OC3CCOCC3)c3ccc(S(=O)(=O)C4CC4)cc3)s2)ccc1C(=O)O (single isomer, unassigned; (-)) [Example G1B, (−)4-[2-[[2-(4-cyclopropylsulfonylphenyl)-2-tetrahydropyran-4-yloxy-acetyl]amino]thiazol-5-yl]oxy-2-methyl-benzoic acid]		
